# In patent publication US11801309B2, “Carbohydrate-functionalized nanoparticles and uses thereof” (VIRGINIA COMMONWEALTH UNIVERSITY INTELLECTUAL PROPERTY …, priority 2016, dated 2023):
# Legend:
# [1] = test system: LXR target genes (FAS and SREBP1) in hepatocytes; assay: Expression of LXR target genes in hepatocytes (QPCR); format: cell-based, mouse; conditions: 0.2 μM, 24 h
# Experimental: FIG. 6A-6D. mDNP-LXR-L delivered LXR ligand appropriately increases gene expression leading to increased FC efflux. FIGS. 6A and 6B: MPMs (FIG. 6A) or Primary hepatocytes (FIG. 6B) were plated in 6-well culture dishes and incubated with either LXR ligand T0901317 or mDNP or mDNP-LXR-L (0.2 μM) for 24 h; untreated cells were used as Controls. Expression of LXR target genes (ABCA1 and ABCG1 in MPMs and FAS and SREBP1 in hepatocytes) was evaluated by QPCR using total RNA as described under “Methods”. Data (Mean±SD, n=3) are expressed as fold increase over Controls. FIG. 6C: MPMs were plated in 6-well plates were exposed to either LXR ligand T0901317 or mDNP or mDNP-LXR-L (0.2 μM) for 24 h. Cells were washed once with cold PBS and harvested in cold buffer on ice as described under “Methods”. Following disruption of cells by sonication and removal of cell debris, CEH activity was measured using a radiometric assay. CEH activity (Mean±SD, n=3) is expressed as % untreated Controls. FIG. 6D: MPMs, plated in 24-well plate, were loaded and labeled with [^3H]-cholesterol as described under “Methods”. During the 24 h equilibration, cells were exposed to either LXR ligand T0901317 or mDNP or mDNP-LXR-L (0.2 μM). FC efflux to medium containing 10% FBS was monitored for 8 and 24 h. Data (Mean±SD, n=6) are expressed as % efflux. *P<0.05 and NS—not significant. […]
# [2] = test system: atherosclerotic plaque volume in patients; conditions: randomized controlled trial; cited from earlier work
Molecule,expression of FAS and SREBP1 [1],decrease in atheroma volume [2] [%]
"O=S(=O)(c1ccccc1)N(CC(F)(F)F)c1ccc(C(O)(C(F)(F)F)C(F)(F)F)cc1 [free LXR-L, T0901317]",significant increase,–
"Evolocumab (antibody, chains of the INN, looked up, V domains shown) VH: EVQLVQSGAEVKKPGASVKVSCKASGYTLTSYGISWVRQAPGQGLEWMGWVSFYNGNTNYAQKLQGRGTMTTDPSTSTAYMELRSLRSDDTAVYYCARGYGMDVWGQGTTVTVSS VL: ESALTQPASVSGSPGQSITISCTGTSSDVGGYNSVSWYQQHPGKAPKLMIYEVSNRPSGVSNRFSGSKSGNTASLTISGLQAEDEADYYCNSYTSTSMVFGGGTKLTVL",–,0.95
